Reference: patent US8476064B2, “Inhibition assay method and device for detection of antibiotics” (Charm Sciences, Inc., priority 2006, dated 2013)

Experiments:
B.st. spores [1] = test: Antibiotic detection test in spiked milk, borate/succinate culture of Example 6 (Table 4); type: cell-based, Bacillus (Geobacillus) Stearothermophilus; parameters: key to Color 1 / Color 2: Color result 1 and 2 is a negative result; Color result 1 and 2 is a negative result; 3 is a borderline result; 4 and 5 is a positive result; 4 and 5 is a positive result; conditions: for % Pos (Color 2) / Color 2: after 16 hours at room temperature; for % Pos (Color 1) / Color 1: immediately after test completion
Protocol: BCP/Borate/Succinate Solution was prepared by adding 3.8 grams of Borate and 6 grams Succinate to 100 mL of reverse osmosis/deionized water (RO/DI Water) in 125 mL flask. 50 milligrams of BCP was added to a 50 mL conical tube and 5 mL of Borate/Succinate solution was added to the 50 milligrams BCP and mixed.
To prepare media 5 grams glucose and 1 gram Mueller Hinton Broth was dissolved in 100 mL RO/DI Water. 1.2 mL of a 0.01 mg/mL solution of trimethoprim in RO/DI Water was prepared and added to the media. A 20 mL of BCP/Borate/Succinate was added to the media and the media was sterile filtered through a 0.45 micron filter and then cooled to 4 degrees C.
Agar was prepared by combining 0.3 grams Difco Bacto-Agar (Item #0140-01), 0.225 NaCl and 17.485 RO/DI Water. The mixture was heated to 95° C. and then removed from the heat and allowed to cool to 75° C. Next 6 mL of media (prepared as described above with BCP/Tris) was added to the agar and mixed for 5 minutes. The mixture was cooled to 57° C. and 1 mL spore solution (concentration of 1 billion cfu/mL) was added and mixed together for 5 minutes. 0.200 mL was dispensed into the bottom of each of the vials.
In test operation 200 microliters of various milk sample, spiked with known concentrations of antibiotics, were pipetted into test vials and incubated for the prescribed time (in this test 2 hours 10 minutes) and prescribed temperature (64 degrees C.+/−2 degrees C.). Incubation was in the Charm I Inctronic incubator. Results were recorded immediately after test completion (Color 1) and after being left at room temperature for 16 hours (Color 2). Results listed are in parts per billion (ppb). 4 samples were run at each concentrations except for raw negative milk (16 samples) and 3 ppb pen G (2 samples) and amoxicillin (2 samples). Abbreviations are penicillin G (PenG); sulfamethazine (SMZ); sulfadimethoxine (SDM); tylosin (TY); gentamicin (G); oxytetracycline (OT); pirlimycin (Pirl); amoxicillin (Amox); ampicillin (Amp); cloxacillin (Clox); ceftiofur sodium (Ceft); cephaprin (Ceph); tilmicosin (Til); sulfadoxine (SDN); neomycin (Neo). Color result 1 and 2 is a negative result, 3 is a borderline result and 4 and 5 is a positive result.

B.st. spores [2] = test: Single service kidney swab microbial growth inhibition test, culture of Example 1, with or without beta-lactam receptor; type: cell-based, Bacillus (Geobacillus) Stearothermophilus; conditions: for test result With receptor: with 1 U receptor
Protocol: A Bromocresol purple (BCP)/Tris Solution was prepared by combining 25 mL of a Trizma Base solution (TBS), the solution including 2.5 grams Trizma Base in 100 mL of reverse osmosis/deionized water (RO/DI Water), with 100 milligrams of BCP and mixing well. The media was prepared by dissolving 5 grams glucose and 1 gram Mueller Hinton Broth (Mueller Hinton broth includes, in purified filtered water, 2 grams per liter (g/L) beef extract, 17.5 g/L casein hydrolysate acid and 1.5 g/L starch, pH 7.3 at 25 degrees C) into 100 mL RO/DI Water. Then a 0.01 mg/mL solution of trimethoprim in RO/DI Water was prepared and 1.2 mL was added to the media. Next 20 mL of BCP/Tris (sterile filtered through 0.45 micron filter) was added to the media.
Agar was prepared by combining 0.3 grams Difco Bacto-Agar (Item #0140-01), 0.225 NaCl and 17.485 RO/DI Water. The mixture was heated to 95° C. and then removed from the heat and allowed to cool to 75° C. Next 6 mL of media (prepared as described above with BCP/Tris) was added to the agar and mixed for 5 minutes. The mixture was cooled to 57° C. and 1 mL spore solution (concentration of 1 billion cfu/mL) was added and mixed together for 5 minutes. 0.200 mL was dispensed into the bottom of a vial 4.
The dispensed vial 4 was prepared as described in example 1. An extractant was prepared by adding 4.8 grams of 47.2% Trizma Base and 52.5% Potassium Phosphate Monobasic to 1000 mL RO/DI Water (pH should be 7.5+/−0.10). The extractant was sealed within the niblet 5 and the niblet was added to the vial 4. The vial 4 was heat sealed with foil.
The single service kidney swab procedure was run by first making a 3 inch incision into kidney. The swab 1 was then withdrawn from the test unit, the test unit in the form of a POCKETSWAB, by gently pulling and twisting the handle 2 out of the test unit body 7. The swab 1 was then inserted into the incision of the kidney and allowed to sit for 15 minutes to allow full absorption of liquid into the swab 1. The swab 1 was reinserted by gently pushing down and twisting to engage the threads 6 and screwing the handle down slowly about halfway. The swab tip 3 punctured the seals 12, 13 & 14 immersing the swab tip 3 into the extractant within the niblet 5 where it sat for 2 minutes. The swab 1 was then screwed down all the way. After shaking and tapping the vial 4 to get residual liquid into the bottom of the vial 4 and in contact with the culture 15, we placed the vial 4 into a heat block set at 67° C. and incubated for 2.5 hours (if urine is tested instead of kidney, incubate for 4 hours).
Culture is prepared as in Example 1. Prior to dispensing 200 microliters into the vial 4, antibiotic binder is prepared, in this example an antibiotic binder from the cell wall of B.st., also known as receptor. Varying amounts of inhibitory receptor units are mixed into the culture. Receptor is defined as protein removed from cellular membrane of B.st. A receptor unit (1 U) is the amount of receptor that will, in the test, reverse the culture growth inhibition of 12.5 ppb of penicillin G.
Results in Table 1 are from tests using the culture described in Example 1 and with the addition of receptor added into rinse buffer (rinse buffer composition is 4.8 grams of 47.2% Trizma Base and 52.5% Potassium Phosphate Monobasic to 1000 mL RO/DI Water) at 0, 0.3 units (U), 1.0 U, 2.0 U, 5.0 Upper test. Sample contained the following amounts of penicillin G: 0, 5 parts per billion (ppb), 10 ppb, 12.5 ppb, 25 ppb and 50 ppb. As shown, 1.0 U was able to reverse the result of a 12.5 ppb penicillin G sample. Results are either positive (+) or negative (−).
Results are either positive (+), negative (−) or borderline between positive and negative (+/−). Abbreviations are penicillin G (PenG); sulfamethazine (SMZ); sulfadimethoxine (SDM); tylosin (TY); gentamicin (G); oxytetracycline (OT). […]

CC1(C)S[C@@H]2[C@H](NC(=O)Cc3ccccc3)C(=O)N2[C@H]1C(=O)O [PenG, penicillin G]
% Pos (Color 2) (B.st. spores [1]; milk spiked at 3 ppb): 100%
Color 2 (B.st. spores [1]; milk spiked at 3 ppb): 5
% Pos (Color 1) (B.st. spores [1]; milk spiked at 3 ppb): 100%
Color 1 (B.st. spores [1]; milk spiked at 3 ppb): 5
% Pos (Color 2) (B.st. spores [1]; milk spiked at 4 ppb): 100%
Color 2 (B.st. spores [1]; milk spiked at 4 ppb): 5
% Pos (Color 1) (B.st. spores [1]; milk spiked at 4 ppb): 100%
Color 1 (B.st. spores [1]; milk spiked at 4 ppb): 5
test result (B.st. spores [2]; 12.5 ppb penicillin G, Control - no receptor): +
test result (B.st. spores [2]; 12.5 ppb penicillin G, Receptor added to buffer): −
test result (B.st. spores [2]; 12.5 ppb penicillin G, Receptor added to culture surface): −
test result (B.st. spores [2]; 12.5 ppb penicillin G, Receptor mixed in culture): −
test result (B.st. spores [2]; 50 ppb penicillin G, Control - no receptor): +
test result (B.st. spores [2]; 50 ppb penicillin G, Receptor added dried on swab): +
test result (B.st. spores [2]; 50 ppb penicillin G, Receptor added to buffer): +
test result (B.st. spores [2]; 50 ppb penicillin G, Receptor added to culture surface): +
test sensitivity to penicillin G (B.st. spores [2]; beta-lactam receptor 0.3 units to 5.0 units added to the top of the culture): reduced by varying amounts
test result w/out receptor (B.st. spores [2]; drug 12.5 ppb): +
test result With receptor (B.st. spores [2]; drug 12.5 ppb): −
test result w/out receptor (B.st. spores [2]; drug 25 ppb): +
test result With receptor (B.st. spores [2]; drug 25 ppb): +
test result (B.st. spores [2]; penicillin G 5 ppb in sample, receptor 0 U per test in rinse buffer): +
test result (B.st. spores [2]; penicillin G 5 ppb in sample, receptor 0.3 U per test in rinse buffer): −
test result (B.st. spores [2]; penicillin G 5 ppb in sample, receptor 1.0 U per test in rinse buffer): −
test result (B.st. spores [2]; penicillin G 5 ppb in sample, receptor 2.0 U per test in rinse buffer): −
test result (B.st. spores [2]; penicillin G 5 ppb in sample, receptor 5.0 U per test in rinse buffer): −
test result (B.st. spores [2]; penicillin G 10 ppb in sample, receptor 0 U per test in rinse buffer): +
test result (B.st. spores [2]; penicillin G 10 ppb in sample, receptor 0.3 U per test in rinse buffer): −
test result (B.st. spores [2]; penicillin G 10 ppb in sample, receptor 1.0 U per test in rinse buffer): −
test result (B.st. spores [2]; penicillin G 10 ppb in sample, receptor 2.0 U per test in rinse buffer): −
test result (B.st. spores [2]; penicillin G 10 ppb in sample, receptor 5.0 U per test in rinse buffer): −
test result (B.st. spores [2]; penicillin G 12.5 ppb in sample, receptor 0 U per test in rinse buffer): +
test result (B.st. spores [2]; penicillin G 12.5 ppb in sample, receptor 0.3 U per test in rinse buffer): +
test result (B.st. spores [2]; penicillin G 12.5 ppb in sample, receptor 1.0 U per test in rinse buffer): −
test result (B.st. spores [2]; penicillin G 12.5 ppb in sample, receptor 2.0 U per test in rinse buffer): −
test result (B.st. spores [2]; penicillin G 12.5 ppb in sample, receptor 5.0 U per test in rinse buffer): −
test result (B.st. spores [2]; penicillin G 25 ppb in sample, receptor 0 U per test in rinse buffer): +
test result (B.st. spores [2]; penicillin G 25 ppb in sample, receptor 0.3 U per test in rinse buffer): +
test result (B.st. spores [2]; penicillin G 25 ppb in sample, receptor 1.0 U per test in rinse buffer): +
test result (B.st. spores [2]; penicillin G 25 ppb in sample, receptor 2.0 U per test in rinse buffer): +
test result (B.st. spores [2]; penicillin G 25 ppb in sample, receptor 5.0 U per test in rinse buffer): +
test result (B.st. spores [2]; penicillin G 50 ppb in sample, receptor 0 U per test in rinse buffer): +
test result (B.st. spores [2]; penicillin G 50 ppb in sample, receptor 0.3 U per test in rinse buffer): +
test result (B.st. spores [2]; penicillin G 50 ppb in sample, receptor 1.0 U per test in rinse buffer): +
test result (B.st. spores [2]; penicillin G 50 ppb in sample, receptor 2.0 U per test in rinse buffer): +
test result (B.st. spores [2]; penicillin G 50 ppb in sample, receptor 5.0 U per test in rinse buffer): +

COc1cc(NS(=O)(=O)c2ccc(N)cc2)nc(OC)n1 [SDM, sulfadimethoxine]
% Pos (Color 2) (B.st. spores [1]; milk spiked at 25 ppb): 100%
Color 2 (B.st. spores [1]; milk spiked at 25 ppb): 5
% Pos (Color 1) (B.st. spores [1]; milk spiked at 25 ppb): 100%
Color 1 (B.st. spores [1]; milk spiked at 25 ppb): 4
% Pos (Color 2) (B.st. spores [1]; milk spiked at 50 ppb): 100%
Color 2 (B.st. spores [1]; milk spiked at 50 ppb): 5
% Pos (Color 1) (B.st. spores [1]; milk spiked at 50 ppb): 100%
Color 1 (B.st. spores [1]; milk spiked at 50 ppb): 5
test result w/out receptor (B.st. spores [2]; drug 50 ppb): +/−
test result With receptor (B.st. spores [2]; drug 50 ppb): +/−
test result w/out receptor (B.st. spores [2]; drug 100 ppb): +/−
test result With receptor (B.st. spores [2]; drug 100 ppb): +/−
test result w/out receptor (B.st. spores [2]; drug 200 ppb): +
test result With receptor (B.st. spores [2]; drug 200 ppb): +

Cc1cc(C)nc(NS(=O)(=O)c2ccc(N)cc2)n1 [SMZ, sulfamethazine]
% Pos (Color 2) (B.st. spores [1]; milk spiked at 100 ppb): 100%
Color 2 (B.st. spores [1]; milk spiked at 100 ppb): 5
% Pos (Color 1) (B.st. spores [1]; milk spiked at 100 ppb): 100%
Color 1 (B.st. spores [1]; milk spiked at 100 ppb): 5
% Pos (Color 2) (B.st. spores [1]; milk spiked at 200 ppb): 100%
Color 2 (B.st. spores [1]; milk spiked at 200 ppb): 4
% Pos (Color 1) (B.st. spores [1]; milk spiked at 200 ppb): 100%
Color 1 (B.st. spores [1]; milk spiked at 200 ppb): 5
test result w/out receptor (B.st. spores [2]; drug 50 ppb): −
test result With receptor (B.st. spores [2]; drug 50 ppb): −
test result w/out receptor (B.st. spores [2]; drug 100 ppb): +/−
test result With receptor (B.st. spores [2]; drug 100 ppb): +/−
test result w/out receptor (B.st. spores [2]; drug 200 ppb): +/−
test result With receptor (B.st. spores [2]; drug 200 ppb): +/−
